Results on 20 molecules are retold here after patent US20250313563A1, “GLYCOGEN SYNTHASE KINASE 3 INHIBITORS AND USES THEREOF” (The Broad Institute, Inc., priority 2022, published 2025).

Assay [1] has as its target GSK3b (GST-full length GSK3b) (Homo sapiens (Human), UniProt P49841). The experiment in a line: GSK3b TR-FRET kinase assay. The format is biochemical. The method, boiled down: (§1)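 In this time-resolved FRET format, kinase reactions contained 200 nM biotinylated, S645-phosphorylated glycogen synthase 631-650 peptide and either isoform-specific ATP (2 μM GSK3b, 4 μM GSK3α) or 1 mM ATP. They were quenched with EDTA after 100 min at ambient temperature. Inhibition curves gave IC50 values.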

Assay [2] deals with GSK3α (GST-full length GSK3α) (Homo sapiens (Human), UniProt P49840). Put plainly: GSK3α TR-FRET kinase assay. The format is biochemical. An outline of the steps: as §1
The mark [3] stands for this setting: 1 nM GSK3b, 2 μM ATP, 30 minute preincubation, Table 16, read-out: GSK3-B TR-FRET BIOCHEMICAL (TR-FRET).
Setting [4] is: 1 nM GSK3α, 4 μM ATP, 30 minute preincubation, Table 16, read-out: GSK3-A TR-FRET BIOCHEMICAL (TR-FRET).
Where [5] appears, read: 1 nM GSK3b, 2 μM ATP, 30 minute preincubation, Table 16, read-out: GSK3-B TR-FRET BIOCHEMICAL (TR-FRET), IC50.
[6] abbreviates: 1 nM GSK3α, 4 μM ATP, 30 minute preincubation, Table 16, read-out: GSK3-A TR-FRET BIOCHEMICAL (TR-FRET), IC50.
Where [7] appears, read: 1 nM GSK3b, 2 μM ATP, 30 minute preincubation, read-out: GSK3-B TR-FRET BIOCHEMICAL (TR-FRET), IC50.
[8] abbreviates: 1 nM GSK3α, 4 μM ATP, 30 minute preincubation, read-out: GSK3-A TR-FRET BIOCHEMICAL (TR-FRET), IC50.
Setting [9] is: read-out: GSK3-B (TR-FRET 1 mM ATP), GMean, IC50, 1 mM ATP, geometric mean.
Setting [10] is: read-out: GSK3-A (TR-FRET 1 mM ATP), GMean, IC50, 1 mM ATP, geometric mean.

Like-named read-outs stand apart in the source and are kept apart here. Bounds are passed on as bounds.

Chain of GSK3b (GST-full length GSK3b) (P49841 whole entry, canonical isoform): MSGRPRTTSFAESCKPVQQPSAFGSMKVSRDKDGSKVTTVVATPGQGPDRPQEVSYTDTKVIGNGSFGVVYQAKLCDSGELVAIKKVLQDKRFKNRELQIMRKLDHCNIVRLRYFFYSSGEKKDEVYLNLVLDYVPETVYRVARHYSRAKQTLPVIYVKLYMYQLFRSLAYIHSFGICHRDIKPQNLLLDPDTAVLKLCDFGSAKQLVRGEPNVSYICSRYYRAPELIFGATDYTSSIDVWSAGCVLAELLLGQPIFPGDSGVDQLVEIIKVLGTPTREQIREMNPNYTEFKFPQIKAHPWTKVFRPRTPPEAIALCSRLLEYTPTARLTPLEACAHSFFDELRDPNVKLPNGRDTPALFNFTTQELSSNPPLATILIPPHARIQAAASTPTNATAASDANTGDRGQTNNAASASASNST
Chain of GSK3α (GST-full length GSK3α) (P49840 whole entry): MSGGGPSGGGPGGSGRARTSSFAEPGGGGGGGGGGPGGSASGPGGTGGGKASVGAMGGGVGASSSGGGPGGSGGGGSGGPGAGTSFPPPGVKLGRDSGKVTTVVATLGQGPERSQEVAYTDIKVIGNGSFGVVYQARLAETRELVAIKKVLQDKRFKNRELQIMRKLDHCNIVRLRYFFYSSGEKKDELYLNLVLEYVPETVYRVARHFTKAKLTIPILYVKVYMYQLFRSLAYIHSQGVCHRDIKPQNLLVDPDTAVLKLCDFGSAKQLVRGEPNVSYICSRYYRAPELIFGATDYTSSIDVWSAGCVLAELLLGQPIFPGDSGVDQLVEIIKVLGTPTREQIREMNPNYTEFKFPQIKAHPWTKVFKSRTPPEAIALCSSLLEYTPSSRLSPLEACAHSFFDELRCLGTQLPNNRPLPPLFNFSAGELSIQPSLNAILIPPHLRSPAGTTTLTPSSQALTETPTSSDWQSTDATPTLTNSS

On to `C[C@H]1C[C@]2(CCO1)C1=C(CC(C)(C)CC1=O)Nc1n[nH]cc12` [Compound 924307], for which the IC50 in assay [1] (setting [3]) and in assay [2] (setting [4]) was 100 to 1000 nM throughout.
Turning to `C[C@@H]1C[C@@]2(CCO1)C1=C(CC(C)(C)CC1=O)Nc1n[nH]cc12` [Compound 924308], the IC50 in assay [1] (setting [3]) and in assay [2] (setting [4]) was 100 to 1000 nM throughout.
As for `C[C@H]1COCC[C@@]12C1=C(CC(C)(C)CC1=O)Nc1n[nH]cc12` [Compound 924309], the IC50 in assay [1] (setting [5]) is above 5000 nM; in assay [2] (setting [6]), 1000 to 5000 nM.
For `C[C@@H]1COCC[C@]12C1=C(CC(C)(C)CC1=O)Nc1n[nH]cc12` [Compound 924310], in that order: above 5000 nM and above 5000 nM.
For `CC[C@H]1C[C@]2(CCO1)C1=C(CC(C)(C)CC1=O)Nc1n[nH]cc12` [Compound 924311] the same measures were 1000 to 5000 nM and 100 to 1000 nM.
For `CCC1(c2cccc(N3CC(C)C(C)C3)c2)C2=C(CC(C)(C)CC2=O)Nc2n[nH]cc21` (centres unmarked) [Compound 924504] the same measures were 100 to 1000 nM and 100 to 1000 nM.
With `CC[C@]1(c2cccc(N3C[C@H](C)[C@@H](C)C3)c2)C2=C(CC(C)(C)CC2=O)Nc2n[nH]cc21` [Compound 924520], the IC50 in assay [1] (setting [5]) and in assay [2] (setting [6]) was above 5000 nM throughout.
As to `CC[C@@H]1C[C@@]2(CCO1)C1=C(CC(C)(C)CC1=O)Nc1n[nH]cc12` [Compound 924715], the IC50 was 100 to 1000 nM in assay [1] (setting [3]) and at most 100 nM in assay [2] (setting [4]).
On to `CCC1(c2cccc(N(C)c3nc(C)cc(C)n3)c2)C2=C(CC(C)(C)CC2=O)Nc2n[nH]cc21` (centres unmarked) [Compound 926304], for which the IC50 in assay [1] (setting [5]) is 1000 to 5000 nM; in assay [2] (setting [6]), 100 to 1000 nM.
Take `CC1(C)CC(=O)C2=C(C1)Nc1n[nH]cc1C21COC2(CN(S(C)(=O)=O)C2)C1` (centres unmarked) [Compound 926808]: the IC50 in assay [1] (setting [7]) and in assay [2] (setting [8]) was at most 100 nM throughout.
Turning to `C[C@H]1C[C@@]2(CCN1S(=O)(=O)c1ccn(C)n1)C1=C(CC(C)(C)CC1=O)Nc1n[nH]cc12` [Compound 926815], the IC50 in assay [1] (setting [3]) and in assay [2] (setting [4]) was at most 100 nM in each case.
With `CC1(C)CC(=O)C2=C(C1)Nc1n[nH]cc1[C@]21COC2(CN(S(C)(=O)=O)C2)C1` [Compound 926823], the IC50 in assay [1] (setting [7]) fell in the range of 1000 to 5000 nM; in assay [2] (setting [8]), 100 to 1000 nM.
With `C[C@H]1C[C@]2(CCN1S(C)(=O)=O)C1=C(CC(C)(C)CC1=O)Nc1n[nH]cc12` [Compound 926827], the IC50 in assay [1] (setting [3]) and in assay [2] (setting [4]) was at most 100 nM in each case.
Turning to `C[C@H]1C[C@]2(CCN1S(=O)(=O)c1ccn(C)n1)C1=C(CC(C)(C)CC1=O)Nc1n[nH]cc12` [Compound 926832], the IC50 in assay [1] (setting [3]) was 100 to 1000 nM; in assay [2] (setting [4]), at most 100 nM.
Regarding `CCC1(c2cccc(-c3cnn4c3CCCC4)c2)C2=C(CC(C)(C)CC2=O)Nc2n[nH]cc21` (centres unmarked) [Compound 926836], the IC50 in assay [1] (setting [5]) was 100 to 1000 nM; in assay [2] (setting [6]) it was at most 100 nM.
For `CCC1(c2cccc(-c3cn(C)nc3C)c2)C2=C(CC(C)(C)CC2=O)Nc2n[nH]cc21` (centres unmarked) [Compound 926840], in that order: at most 100 nM and at most 100 nM.
For `CCC1(c2cccc(-c3cnnc(C)c3)c2)C2=C(CC(C)(C)CC2=O)Nc2n[nH]cc21` (centres unmarked) [Compound 926844] the same measures were 100 to 1000 nM and at most 100 nM.
In the case of `CC(=O)N1CC2(C1)C[C@]1(CO2)C2=C(CC(C)(C)CC2=O)Nc2n[nH]cc21` [Compound 926861], the IC50 in assay [1] (setting [7]), in assay [1] (setting [9]), in assay [2] (setting [8]) and in assay [2] (setting [10]) was at most 100 nM in each case.
On to `CC(=O)N1CC2(C1)C[C@@]1(CO2)C2=C(CC(C)(C)CC2=O)Nc2n[nH]cc21` [Compound 926872], for which the IC50 in assay [1] (setting [7]) and in assay [2] (setting [8]) was 100 to 1000 nM each time.
With `CCC1(c2cccc(-c3ccnc(C)c3)c2)C2=C(CC(C)(C)NC2=O)Nc2n[nH]cc21` (centres unmarked) [Compound 927325], the IC50 was 100 to 1000 nM in assay [1] (setting [7]), above 5000 nM in assay [1] (setting [9]), at most 100 nM in assay [2] (setting [8]) and 100 to 1000 nM in assay [2] (setting [10]).
